Measurements taken from paper PMC10460389, “Design of 8-mer peptides that block Clostridioides difficile toxin A in intestinal cells” (Communications Biology, 2023).

Tests used:
[1] = tested on: C. diff. infection; settings: antibiotic treatment (metronidazole and vancomycin); cited from earlier work
Description: Multiple therapeutic approaches have been developed to treat C. diff. infection. The standard practice is treatment with antibiotics (metronidazole and vancomycin), but in 20% of cases infection reoccurs. Exposure to these antibiotics alters the microbial community in the gut, facilitating colonization by C. diff[21].

[2] = tested on: TcdA GTD catalytic site; settings: cited from earlier work
[3] = tested on: small intestinal (jejunum) cells exposed to TcdA; settings: cited from earlier work
[4] = tested on: TcdA GTD; settings: 0.5 μM UDP-Glucose-Fluorescein 15 min; vs no-TcdA-AF594 no-UDP-Glucose-Fluorescein control RP(-T -U) for SA1; two-tailed T-test
Description: For the bead-based assay, statistical analyses were performed using a two-tailed T-test in conjunction with the RP (-T) control. Significance was determined at p < 0.05. […] Approximately 40 beads were imaged for each sample, with images containing out-of-focus beads or bead aggregates being excluded. […] Each SPR sensor was used to run two samples across two separate channels, leading to a total of 14 measurements. However, one measurement was excluded due to the loss of a stable signal.

Cc1ncc([N+](=O)[O-])n1CCO [metronidazole]
cases in which infection reoccurs [1]: 20%

CN[C@H](CC(C)C)C(=O)N[C@H]1C(=O)N[C@@H](CC(N)=O)C(=O)N[C@H]2C(=O)N[C@H]3C(=O)N[C@H](C(=O)N[C@H](C(=O)O)c4cc(O)cc(O)c4-c4cc3ccc4O)[C@H](O)c3ccc(c(Cl)c3)Oc3cc2cc(c3O[C@@H]2O[C@H](CO)[C@@H](O)[C@H](O)[C@H]2O[C@H]2C[C@](C)(N)[C@H](O)[C@H](C)O2)Oc2ccc(cc2Cl)[C@H]1O [vancomycin]
cases in which infection reoccurs [1]: 20%

DGWIQHYKHR [NPC, computationally designed 10-mer peptide from previous work]
ΔGbinding [2]: -6.15
neutralization of TcdA in jejunum / small intestinal cells [3]: neutralized toxin A in jejunum cells

GMFWQHRRHD [NPB, computationally designed 10-mer peptide from previous work]
ΔGbinding [2]: -11.35
neutralization of TcdA in jejunum / small intestinal cells [3]: neutralized toxin A in jejunum cells

HEWGRRHN [SA7]
change in green fluorescence from center to halo (TcdA binding) region [4]: All peptides except SA7 showed a significant (p < 0.005) decrease in green fluorescence
